Results published in patent publication US11572590B2, “Methods for evaluating tumor cell spheroids using 3D microfluidic cell culture device” (Dana-Farber Cancer Institute, Inc., priority 2017, dated 2023).
Read-outs that look alike come from different tables or passages of the source.

Columns and labels:
off-target kinases [1] = molecular target: T1, off-target kinases (Homo sapiens, UniProt O43318); assay: SelectScreen Kinase Profiling, single point inhibition and IC50 for off-target kinases; assay type: biochemical; design: other: MAP3K7/MAP3K7IP1 (TAK1-TAB1); 1000 μM; fused on or other part: TAB1 (MAP3K7IP1, Q15750), either fused to TAK1 or present as a separate partner chain; conditions: MAP3K7/MAP3K7IP1 (TAK1-TAB1); LanthaScreen Binding; 1000 μM
T1 sequence (O43318 1-606): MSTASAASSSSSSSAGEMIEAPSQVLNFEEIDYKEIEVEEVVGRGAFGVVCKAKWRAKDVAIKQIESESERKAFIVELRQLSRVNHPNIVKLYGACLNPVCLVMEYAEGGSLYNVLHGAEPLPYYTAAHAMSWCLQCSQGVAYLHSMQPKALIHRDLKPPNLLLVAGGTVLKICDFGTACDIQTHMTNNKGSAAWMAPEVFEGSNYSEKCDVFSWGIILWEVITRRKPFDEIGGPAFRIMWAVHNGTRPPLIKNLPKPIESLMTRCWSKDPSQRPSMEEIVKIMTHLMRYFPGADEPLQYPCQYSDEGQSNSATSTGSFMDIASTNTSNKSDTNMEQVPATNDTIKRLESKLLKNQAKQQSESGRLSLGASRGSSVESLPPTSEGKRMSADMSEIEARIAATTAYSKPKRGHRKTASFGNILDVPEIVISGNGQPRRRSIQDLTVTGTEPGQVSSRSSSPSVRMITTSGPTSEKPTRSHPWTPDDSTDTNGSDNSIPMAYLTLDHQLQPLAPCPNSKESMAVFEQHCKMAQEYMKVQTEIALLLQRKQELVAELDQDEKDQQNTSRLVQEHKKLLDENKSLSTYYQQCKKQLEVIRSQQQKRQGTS
Procedure: (§1) Biochemical single point inhibition and IC50 concentrations for TBK1, IKKε (IKBKE), and off-target kinases were determined at ThermoFisher Scientific using SelectScreen Kinase Profiling Services (Madison, Wis., USA) (Tables S4A and S4B-1-7). To determine cellular potency, the human colorectal cancer carcinoma cell line HCT116 (ATCC, Manassas, Va.) was maintained in T175 flasks in complete RPMI medium; RPMI 1640 supplemented with 10% FBS, 1× Penicillin-Streptomycin solution and 1×MEM (non-essential amino acids). HCT116 cells were grown to 90-95% confluency in T175 flasks containing complete RPMI medium and transfected in bulk using Lipofectamine 2000 (Invitrogen, Carlsbad, Calif.) with 70 μg of ISG54-luciferase reporter plasmid (Elim Biopharmaceuticals Inc., Hayward, Calif.). The reporter plasmid contains a luciferase gene expression cassette under the transcriptional regulation of the promoter of the human interferon stimulated gene 54 (ISG54). […] The assay plates were incubated for 5 hours at 37° C., followed by addition of One-Glo luciferase firefly reagent (Promega, Madison, Wis.) at 1:1 volume/well and luminescence was measured in an EnVision Multilabel Plate Reader (PerkinElmer, Santa Clara, Calif.). The EC50 values were calculated from the fit of the dose-response curves to a four-parameter equation. […]

off-target kinases [2] = molecular target: off-target kinases (Homo sapiens, UniProt P05771); assay: as above; assay type: biochemical; design: other: PRKCB2 (PKC beta II); ZLYTE; ATP Km app; 1000 μM; conditions: PRKCB2 (PKC beta II), ZLYTE, ATP Km app
Chain of off-target kinases (Homo sapiens, UniProt P05771) (P05771 1-673 isoform P05771-2): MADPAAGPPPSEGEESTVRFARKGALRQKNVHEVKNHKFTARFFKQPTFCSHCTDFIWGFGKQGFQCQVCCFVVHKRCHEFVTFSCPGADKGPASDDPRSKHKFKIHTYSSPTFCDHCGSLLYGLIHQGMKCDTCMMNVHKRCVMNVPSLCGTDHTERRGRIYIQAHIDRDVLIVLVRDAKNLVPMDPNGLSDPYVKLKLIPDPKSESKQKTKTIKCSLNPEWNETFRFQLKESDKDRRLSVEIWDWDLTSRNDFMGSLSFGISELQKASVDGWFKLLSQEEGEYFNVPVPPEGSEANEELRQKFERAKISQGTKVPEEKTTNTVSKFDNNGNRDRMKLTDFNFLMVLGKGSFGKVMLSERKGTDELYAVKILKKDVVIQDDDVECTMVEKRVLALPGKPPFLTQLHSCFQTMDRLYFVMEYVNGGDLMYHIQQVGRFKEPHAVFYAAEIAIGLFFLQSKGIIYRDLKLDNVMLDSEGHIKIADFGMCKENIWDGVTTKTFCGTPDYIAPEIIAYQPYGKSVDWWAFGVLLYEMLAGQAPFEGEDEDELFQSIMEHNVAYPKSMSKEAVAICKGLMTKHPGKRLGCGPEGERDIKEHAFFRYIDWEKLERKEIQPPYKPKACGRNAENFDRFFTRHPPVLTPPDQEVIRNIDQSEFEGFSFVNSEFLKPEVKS
Procedure: as §1, with “(ISG54). Transfection of the cells was allowed to take place for 6 hours, after which the cells were harvested by treatment with 0.25% trypsin EDTA (Corning Inc., Corning, N.Y.). Trypsinized cells were added to 384-well poly-d-lysine treated black clear bottom tissue culture assay plates (Greiner Bio-One GmbH, Kremsmünster, Austria) at a density of 20,000 cells/well in 80 μL of complete RPMI medium and incubated overnight. After 16-18 hours post-transfection, the assay plates were washed with PBS (Corning Inc., Corning, N.Y.), followed by addition of 80 μL/well of serum-free RPMI 1640 medium containing 1× Penicillin-Streptomycin solution, 1×MEM and 350 nL of DMSO or titrations of Compound 1.” for “(ISG54).”

N#Cc1cc(-c2ncnc(Nc3ccc(N4CCN(C5COC5)CC4)cc3)n2)ccc1OC1CCOCC1 [Compound 1, 5-(4-((4-(4-(oxetan-3-yl)piperazin-1-yl)phenyl)amino)-1,3,5-triazin-2-yl)-2-((tetrahydro-2H-pyran-4-yl)oxy)benzonitrile]
% Inhibition 1 (off-target kinases [1]): 22%
inhibition (off-target kinases [2]; read-out: % Inhibition 1): 12%
inhibition (off-target kinases [2]; read-out: % Inhibition 2): 8%
inhibition (off-target kinases [2]; read-out: % Inhibition Avg): 10%
